In the assay the target is T1, hROMK (hKir1.1) (Homo sapiens, UniProt P48048).
T1 construct: expressed in transfected cells
T1 sequence (P48048 1-391): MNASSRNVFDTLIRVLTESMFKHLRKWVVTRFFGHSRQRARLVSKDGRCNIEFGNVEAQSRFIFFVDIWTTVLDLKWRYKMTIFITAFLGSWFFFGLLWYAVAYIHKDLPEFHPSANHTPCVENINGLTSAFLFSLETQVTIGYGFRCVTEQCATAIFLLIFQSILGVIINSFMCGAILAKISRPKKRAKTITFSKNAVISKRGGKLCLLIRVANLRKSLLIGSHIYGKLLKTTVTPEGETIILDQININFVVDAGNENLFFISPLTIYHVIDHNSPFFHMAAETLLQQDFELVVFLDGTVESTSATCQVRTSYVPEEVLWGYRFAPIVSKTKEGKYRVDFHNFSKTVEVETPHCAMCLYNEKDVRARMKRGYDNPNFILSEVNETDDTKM
As to the kind of experiment: Thallium Flux Assay. Type of assay: cell-based. In outline: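 HEK293 cells stably expressing hROMK, loaded with FluxOR dye 90 min at ambient temperature, then compound 30 min with 0.3 mM ouabain in probenecid buffer pH 7.4.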

Where [1] appears, read: HEK293 cells stably expressing hROMK (hKir1.1), FLIPR-Tetra, read-out: Thallium Flux IC50.

Where two headings read alike, the source gives them in different places.

The values below come from patent EP2790511B1 (Merck Sharp & Dohme Corp., priority 2011, dated 2013).

One may read the IC50 as the concentration that gives 50% inhibition. For `N#Cc1c(F)ccc([C@H]2CN3CCN(C(=O)Cc4cnc(-n5cnnn5)nc4)C[C@@H]3CO2)c1Cl` [Example 126, 2-chloro-6-fluoro-3-[(3S,9aR)-8-{[2-(1H-tetrazol-1-yl)pyrimidin-5-yl]acetyl}octahydropyrazino[2,1-c][1,4]oxazin-3-yl]benzonitrile], the 50% inhibitory concentration (IC50) under setting [1] amounted to 140 nM.

In the case of `Cc1c([C@H]2CN3CCN(C(=O)Cc4ccc(-n5cnnn5)nc4)C[C@H]3CS2)ccc(F)c1C#N` [Example 185, 6-fluoro-2-methyl-3-[(3S,9aS)-8-{[6-(1H-tetrazol-1-yl)pyridin-3-yl]acetyl}octahydropyrazino[2,1-c][1,4]thiazin-3-yl]benzonitrile], under setting [1], the half-inhibitory concentration (IC50) turned out to be 180 nM. On the same count and under the same terms, under `Cc1cc2c(cc1[C@@H]1CN3CCN(C(=O)Cc4ccc(-n5cnnn5)nc4)C[C@H]3CO1)COC2=O` [Example 72, 6-methyl-5-[(3R,9aS)-8-{[6-(1H-tetrazol-1-yl)pyridin-3-yl]acetyl}octahydropyrazino[2,1-c][1,4]oxazin-3-yl]-2-benzofuran-1(3H)-one] stands 750 nM; under `Cc1c([C@H]2CN3CCN(C(=O)Cc4cnc(-n5cnnn5)c(F)c4)C[C@@H]3CO2)ccc(F)c1C#N` [Example 147, 6-fluoro-3-[(3S,9aR)-8-{[5-fluoro-6-(1H-tetrazol-1-yl)pyridin-3-yl]acetyl}octahydropyrazino[2,1-c][1,4]oxazin-3-yl]-2-methylbenzonitrile], 140 nM; under `COc1cc([C@@H]2CN3CCN(C(=O)Cc4ccc(-n5cnnn5)nc4)C[C@@H]3CO2)cc(F)c1C#N` [Example 111, 2-fluoro-6-methoxy-4-[(3R,9aR)-8-{[6-(1H-tetrazol-1-vl)pvridin-3-yl]acetyl}octahydropyrazino[2,1-c][1,4]oxazin-3-yl]benzonitrile], 170 nM. For `Cc1c([C@@H]2CN3CCN(C(=O)Cc4cnc(-n5cnnn5)c(F)c4)C[C@@H]3CO2)ccc(F)c1C#N` [Example 146, 6-fluoro-3-[(3R,9aR)-8-{[5-fluoro-6-(1H-tetrazol-1-yl)pyridin-3-yl]acetyl}octahydropyrazino[2,1-c][1,4]oxazin-3-yl]-2-methylbenzonitrile], under setting [1], the IC50 is 90 nM. In the case of `Cc1c(C2CN3CCN(C(=O)Cc4cnc(-n5cnnn5)nc4)CC3CCO2)ccc2c1COC2=O` (single isomer, unassigned) [Example 165, 4-methyl-5-(2-{[2-(1H-tetrazol-1-yl)pyrimidin-5-yl]acetyl}octahydro-2H-pyrazino[1,2-d][1,4]oxazepin-7-yl)-2-benzofuran-1(3H)-one], under setting [1], the concentration for half-maximal inhibition (IC50) came out at 210 nM. For the setting “Thallium Flux IC50”, `O=C1OCCc2cc([C@H]3CN4CCN(C(=O)Cc5ccc(-n6cnnn6)nc5)C[C@@H]4CO3)ccc21` [Example 55, 6-[(3S,9aR)-8-{[6-(1H-tetrazol-1-yl)pyridin-3-yl]acetyl}octahydropyrazino[2,1-c][1,4]oxazin-3-yl]-3,4-dihydro-1H-isochromen-1-one] registered an IC50 of 120 nM. The same measure, in the same setting: then `Cc1c([C@H]2CN3CCN(C(=O)Cc4ccc(-n5cnnn5)cn4)C[C@H]3CO2)ccc2c1COC2=O` [Example 29, 4-methyl-5-[(3S,9aS)-8-{[5-(1H-tetrazol-1-yl)pyridin-2-yl]acetyl}octahydropyrazino[2,1-c][1,4]oxazin-3-yl]-2-benzofuran-1(3H)-one], with 110 nM. As for `O=C1OCc2c1ccc([C@H]1CN3CCN(C(=O)Cc4ccc(-n5cnnn5)nc4)C[C@H]3CO1)c2Br` [Example 48, 4-bromo-5-[(3S,9aS)-8-{[6-(1H-tetrazol-1-yl)pyridin-3-yl]acetyl}octahydropyrazino[2,1-c][1,4]oxazin-3-yl]-2-benzofuran-1(3H)-one], the half-maximal inhibitory concentration (IC50) under setting [1] worked out at 150 nM. The same measure, in the same setting: then `COc1c([C@@H]2CN3CCN(C(=O)Cc4ccc(-n5cnnn5)nc4)C[C@H]3CO2)ccc(F)c1C#N` [Example 60, 6-fluoro-2-methoxy-3-[(3R,9aS)-8-{[6-(1H-tetrazol-1-vl)pvridin-3-yl]acetyl}octahydropyrazino[2,1-c][1,4]oxazin-3-yl]benzonitrile], with 140 nM. `COc1ccc([C@H]2CN3CCN(C(=O)Cc4ccc(-n5cnnn5)nc4)C[C@H]3CO2)c(C)c1C#N` [Example 49, 6-methoxy-2-methyl-3-[(3S,9aS)-8-{[6-(1H-tetrazol-1-vl)pvridin-3-yl]acetyl}octahydropyrazino[2,1-c][1,4]oxazin-3-yl]benzonitrile]: where the note is “Thallium Flux IC50”, inhibition was half-maximal at 290 nM (IC50).

With `Cc1c([C@@H]2CN3CCN(C(=O)Nc4ccc(-n5cnnn5)nc4)C[C@@H]3CO2)ccc(F)c1C#N` [Example 199, (3R,9aR)-3-(3-cyano-4-fluoro-2-methylphenyl)-N-[6-(1H-tetrazol-1-yl)pyridin-3-yl]hexahydropyrazino[2,1-c][1,4]oxazine-8(1H)-carboxamide], the IC50 under setting [1] is 140 nM.

`Cc1cc(CC(=O)N2CCN3C[C@H](c4ccc(F)c(C#N)c4C)OC[C@H]3C2)cnc1-n1cnnn1` [Example 134, 6-fluoro-2-methyl-3-[(3S,9aR)-8-{[5-methyl-6-(1H-tetrazol-1-yl)pyridin-3-yl]acetyl}octahydropyrazino[2,1-c][1,4]oxazin-3-yl]benzonitrile]: under setting [1], the IC50 was found to be 280 nM.

With `Cc1c([C@H]2CN3CCN(C(=O)Cc4cnc(-n5cnnn5)nc4C(F)(F)F)C[C@H]3CO2)ccc(F)c1C#N` [Example 158, 6-fluoro-2-methyl-3-[(3S,9aS)-8-{[2-(1H-tetrazol-1-yl)-4-(trifluoromethyl)pyrimidin-5-yl]acetyl}octahydropyrazino[2,1-c][1,4]oxazin-3-yl]benzonitrile], under setting [1], the IC50 stood at 200 nM. Regarding `COc1c([C@H]2CN3CCN(C(=O)Cc4cnc(-n5cnnn5)nc4)C[C@H]3CO2)ccc(F)c1C#N` [Example 139, 6-fluoro-2-methoxy-3-[(3S,9aS)-8-{[2-(1H-tetrazol-1-vl)pvrimidin-5-yl]acetyl}octahydropyrazino[2,1-c][1,4]oxazin-3-yl]benzonitrile], the half-inhibitory concentration (IC50) under setting [1] turned out to be 160 nM.

In the case of `Cc1c([C@H]2CN3CCN(C(=O)Cc4ccnc(-n5cnnn5)c4)C[C@H]3CO2)ccc(F)c1C#N` [Example 100], the IC50 under setting [1] stood at 190 nM. As to `N#Cc1c(F)ccc([C@H]2CN3CCN(C(=O)Cc4cnc(-n5cnnn5)nc4)C[C@H]3CO2)c1Cl` [Example 137, 2-chloro-6-fluoro-3-[(3S,9aS)-8-{[2-(1H-tetrazol-1-yl)pyrimidin-5-yl]acetyl}octahydropyrazino[2,1-c][1,4]oxazin-3-yl]benzonitrile], the IC50 (Thallium Flux IC50) came to 60 nM. Still for that read-out and setting: under `N#Cc1c(F)ccc([C@H]2CN3CCN(C(=O)Cc4ccc(-n5cnnn5)cn4)C[C@H]3CO2)c1Cl` [Example 52, 2-chloro-6-fluoro-3-[(3S,9aS)-8-{[5-(1H-tetrazol-1-yl)pyridin-2-yl]acetyl}octahydropyrazino[2,1-c][1,4]oxazin-3-yl]benzonitrile] stands 110 nM; under `Cc1cc(-n2cnnn2)cnc1CC(=O)N1CCN2C[C@H](c3ccc(F)c(C#N)c3C)OC[C@@H]2C1` [Example 85, 6-fluoro-2-methyl-3-[(3S,9aS)-8-{[3-methyl-5-(1H-tetrazol-1-vl)pvridin-2-yl]acetyl}octahydropyrazino[2,1-c][1,4]oxazin-3-yl]benzonitrile], 240 nM.

Regarding `COc1cc(F)c([C@@H]2CN3CCN(C(=O)Cc4cnc(-n5cnnn5)nc4)C[C@H]3CO2)cc1C#N` [Example 168, 4-fluoro-2-methoxy-5-[(3R,9aS)-8-{[2-(1H-tetrazol-1-yl)pyrimidin-5-yl]acetyl}octahydropyrazino[2,1-c][1,4]oxazin-3-yl]benzonitrile], the IC50 under setting [1] is 350 nM. Regarding `O=C(Cc1ccc(-n2cnnn2)nc1)N1CCN2C[C@@H](c3cccc(-n4cnnn4)c3)OC[C@@H]2C1` [Example 103, (3R,9aS)-3-[3-(1H-tetrazol-1-yl)phenyl]-8-{[6-(1H-tetrazol-1-vl)pvridin-3-yl]acetyl}octahydropyrazino[2,1-c][1,4]oxazine], the IC50 under setting [1] is 340 nM. For `N#Cc1cc([C@@H]2CN3CCN(C(=O)Cc4ccc(-n5cnnn5)cn4)C[C@H]3CO2)c(F)cc1F` [Example 82, 2,4-difluoro-5-[(3R,9aS)-8-{[5-(1H-tetrazol-1-yl)pyridin-2-yl]acetyl}octahydropyrazino[2,1-c][1,4]oxazin-3-yl]benzonitrile], under setting [1], the half-maximal inhibitory concentration (IC50) is 340 nM. Still for that read-out and setting: then `N#Cc1c(F)ccc([C@H]2CN3CCN(C(=O)Cc4ccc(-n5cnnn5)nc4)C[C@H]3CO2)c1F` [Example 12, 2,6-difluoro-3-[(3S,9aS)-8-{[6-(1H-tetrazol-1-yl)pyridin-3-yl]acetyl}octahydropyrazino[2,1-c][1,4]oxazin-3-yl]benzonitrile], with 120 nM; and `Cc1c(C#N)cccc1[C@@H]1CN2CCN(C(=O)Cc3cnc(-n4cnnn4)nc3)C[C@H]2CO1` [Example 17, 2-methyl-3-[(3R,9aS)-8-{[2-(1H-tetrazol-1-yl)pyrimidin-5-yl]acetyl}octahydropyrazino[2,1-c][1,4]oxazin-3-yl]benzonitrile], with 160 nM. The same measure, in the same setting: under `COc1cc(-n2cnnn2)cnc1CC(=O)N1CCN2C[C@@H](c3ccc(F)c(C#N)c3C)OC[C@H]2C1` [Example 124, 6-fluoro-3-[(3R,9aR)-8-{[3-methoxy-5-(1H-tetrazol-1-vl)pvridin-2-yl]acetyl}octahydropyrazino[2,1-c][1,4]oxazin-3-yl]-2-methylbenzonitrile] stands 330 nM.
